Results on 14 compounds are retold here after PubChem BioAssay (NCI).

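Growth conditions: 96-well plates. Treatment: test compound, 48 hours, 5 concentrations. Analysis: linear interpolation between bracketing concentrations; unreached endpoints set to highest concentration. The concentration for 50% growth inhibition is given as GI50. TGI marks complete inhibition of growth.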

Test systems include EKVX NSCLC; KM12 colon; SF-539 CNS; OVCAR-4 ovarian; SR leukemia; SK-MEL-5 melanoma; SW-620 colon; RXF 393 renal; SN12C renal; PC-3 prostate.
Experiment in all cases: NCI tumour cell line growth inhibition, 48 h

In the case of `COc1cccc(C(=O)N2CCc3ccccc32)c1OC`, the TGI in the test with EKVX NSCLC, in the test with KM12 colon, in the test with SF-539 CNS, with OVCAR-4 ovarian, in the test on SR leukemia and with SK-MEL-5 melanoma was greater than 100 µM in each case. In addition, the TGI in the test on SW-620 colon, in the test with RXF 393 renal and in the test on SN12C renal was greater than 100 µM each time.
In the case of `COc1c(C(=O)O)oc2c(OC)cccc12`, the TGI in the test with EKVX NSCLC, in the test on KM12 colon, in the test with SF-539 CNS, with OVCAR-4 ovarian, in the test with SR leukemia and in the test with SK-MEL-5 melanoma was greater than 100 µM throughout. The TGI in the test with SW-620 colon and in the test on SN12C renal was greater than 100 µM each time.
Consider `COc1ccc2c(c1OC)C1=C(C2=O)c2cc3c(cc2CCN1)OCO3`, for which the TGI was greater than 100 µM in the test with EKVX NSCLC; 78 µM in the test with KM12 colon; 61.2 µM in the test with SF-539 CNS; greater than 100 µM in the test on OVCAR-4 ovarian; 55 µM with SR leukemia; 84.3 µM in the test with SK-MEL-5 melanoma. The TGI in the test on SW-620 colon was 47.5 µM; with RXF 393 renal, greater than 100 µM; in the test on SN12C renal it was greater than 100 µM.
Take `CC(C)(C)NCc1cc(C(C)(C)C)cc(-c2ccc(Cl)cc2)c1O`: the TGI in the test with EKVX NSCLC was found to be 32.4 µM; in the test with KM12 colon, 27.1 µM; in the test on SF-539 CNS, 27.9 µM; in the test on OVCAR-4 ovarian, 41.3 µM; with SR leukemia it was 40.4 µM; with SK-MEL-5 melanoma it was 29.7 µM. The same compound registered a TGI with SN12C renal of 30.3 µM.
In the case of `N=c1nnc(=O)c2c(s1)-n1ncc(C(=O)O)c1NN2`, the TGI in the test on EKVX NSCLC, with KM12 colon, in the test with SF-539 CNS, in the test on OVCAR-4 ovarian, with SR leukemia and in the test with SK-MEL-5 melanoma was greater than 100 µM each time. Besides, the TGI with SW-620 colon, with RXF 393 renal and in the test on SN12C renal was greater than 100 µM in each case.
In the case of `CC(=O)O[C@H]1CC[C@@]2(C)C(=CC[C@H]3C4=CC=C(C(C)=O)[C@@]4(C)CCC32)C1` (some centres not stated), the TGI in the test on EKVX NSCLC is greater than 100 µM; in the test on KM12 colon, greater than 100 µM; with SF-539 CNS, greater than 100 µM; with OVCAR-4 ovarian, greater than 100 µM; in the test with SR leukemia, 81 µM; in the test on SK-MEL-5 melanoma it was 40.3 µM. Also, the TGI in the test with SW-620 colon was 52.7 µM; with RXF 393 renal it was 63.7 µM; with SN12C renal, greater than 100 µM.
As to `CCNC(=O)C#CC(=O)NCC`, the GI50 with EKVX NSCLC, in the test on KM12 colon, in the test on SF-539 CNS, with OVCAR-4 ovarian, with SR leukemia and with SK-MEL-5 melanoma was greater than 10 µM each time. Also, the figures for the GI50 in the test with SW-620 colon, in the test on RXF 393 renal and in the test with SN12C renal were greater than 10 µM, greater than 100 µM and greater than 10 µM, respectively. Also, the TGI in the test with EKVX NSCLC is greater than 100 µM; in the test with KM12 colon it was greater than 100 µM; with SF-539 CNS, greater than 100 µM; in the test on OVCAR-4 ovarian, greater than 100 µM; in the test with SR leukemia, greater than 61.4 µM; in the test with SK-MEL-5 melanoma, greater than 100 µM. Also, the TGI in the test with SW-620 colon was greater than 87.7 µM; in the test on RXF 393 renal it was greater than 100 µM; in the test with SN12C renal, greater than 100 µM.
`CN(CN1C(=O)C2Cc3ccccc3CN2C1=O)c1ccccn1` (configuration not stated): the TGI with KM12 colon, in the test with SF-539 CNS, in the test on OVCAR-4 ovarian, with SR leukemia, in the test on SK-MEL-5 melanoma and in the test with SW-620 colon was greater than 100 µM throughout. The compound also displayed a TGI in the test on SN12C renal greater than 100 µM.
Take `COc1ccc(C(N)=O)cc1N=NN(C)C`: the TGI in the test with EKVX NSCLC, in the test on KM12 colon, in the test on SF-539 CNS, in the test with OVCAR-4 ovarian, with SR leukemia and in the test with SK-MEL-5 melanoma was greater than 100 µM each time. The TGI in the test on SW-620 colon and with SN12C renal was greater than 100 µM in each case.
As for `Cc1c(C(=O)NCCO)[n+](=O)c2cc(Cl)ccc2n1[O-]`, the TGI in the test with EKVX NSCLC, in the test on KM12 colon, in the test with SF-539 CNS, in the test with OVCAR-4 ovarian, with SR leukemia and in the test with SK-MEL-5 melanoma was greater than 100 µM each time. The TGI in the test on SW-620 colon, in the test with RXF 393 renal and in the test on SN12C renal was greater than 100 µM in each case.
`COC1OC(CO)C(O)C(O)C1Br` (configuration not stated): the TGI in the test with KM12 colon, with SF-539 CNS, in the test on OVCAR-4 ovarian, with SR leukemia, in the test on SK-MEL-5 melanoma and in the test with SW-620 colon was greater than 100 µM in each case. For the same compound, the TGI with RXF 393 renal and in the test with SN12C renal was greater than 100 µM throughout.
As to `COc1cccc(NC(=O)CC(=O)N2N=C(N(CCC#N)c3ccccc3C)CC2c2ccccc2)c1` (configuration not stated), the TGI in the test with EKVX NSCLC, in the test on KM12 colon, in the test with SF-539 CNS, with OVCAR-4 ovarian, in the test on SR leukemia and with SK-MEL-5 melanoma was greater than 100 µM in each case. Moreover, the TGI with SW-620 colon, with RXF 393 renal and in the test with SN12C renal was greater than 100 µM throughout.
With `Cc1nc2c(n1C(C)(C)C)C(=O)c1ccccc1C2=O`, the TGI in the test on EKVX NSCLC, with KM12 colon, in the test with SF-539 CNS, in the test with OVCAR-4 ovarian, in the test with SR leukemia and with SK-MEL-5 melanoma was greater than 100 µM in each case. Further, the TGI with SW-620 colon, in the test with RXF 393 renal and with SN12C renal was greater than 100 µM in each case.
Consider `Cc1nc2sc(C(=O)Nc3cccc4ccccc34)c(N)c2cc1C(=O)c1ccccc1`, for which the GI50 was 2.95 µM with EKVX NSCLC; 1.86 µM with KM12 colon; 1.06 µM in the test with SF-539 CNS; 3.21 µM in the test with OVCAR-4 ovarian; 0.632 µM in the test with SR leukemia; 1.92 µM in the test on SK-MEL-5 melanoma. Also, the GI50 with SW-620 colon is 1.71 µM; in the test with PC-3 prostate, 1.78 µM; with SN12C renal it was 2.98 µM. Besides, the TGI in the test with EKVX NSCLC was greater than 50 µM; in the test with KM12 colon it was greater than 50 µM; with SF-539 CNS it was 2.71 µM; in the test on OVCAR-4 ovarian, greater than 50 µM; with SR leukemia it was greater than 50 µM; in the test with SK-MEL-5 melanoma it was 12.4 µM. Also, the TGI with SW-620 colon, with PC-3 prostate and in the test on SN12C renal was greater than 50 µM each time.
